Data from US20070244110A1, “Treatment of prostate cancer, melanoma or hepatic cancer” (ZENYAKU KOGYO KABUSHIKI KAISHA, priority 2006, published 2007).

How the values were obtained:
B16F10 melanoma cells = test: In vitro anti-tumor experiment, growth inhibition of B16F10 cells; assay type: cell-based; conditions: B16F10, 72 hours incubation
Experimental: (§1) Hepatoma HepG2 cells were cultured in a MEM culture medium (containing 10% fetal bovine serum, 25 mM HEPES and 0.1 mg/ml kanamycin) under conditions of 5% carbon dioxide at 37° C. HepG2 cells were harvested as single free cells by a tripsin/EDTA treatment in the logarithmic growth phase, and a cell suspension solution consisted of 2×10^4 cells per ml was prepared with MEM culture medium (containing 10% fetal bovine serum, 25 mM HEPES and 0.1 mg/ml kanamycin). The test compound was dissolved in DMSO, then diluted with RPMI1640 culture medium (containing 10% fetal bovine serum, 25 mM HEPES, 0.1 mg/ml kanamycin), and adjusted to a concentration of 2.0×10^−9 to 2.0×10^−3 M.
(§2) 0.1 ml of the cell suspension solution was put in each well of a 96-well plate, then cultured for 24 hours to make the cells adhere to the microplates, and 0.1 ml of the test compound was added in each well and incubated for 72 hours under conditions of 5% carbon dioxide at 37° C. The 50% growth inhibition concentration (GI50 value μM) was computed from the growth inhibition rates at various test sample concentrations, and the results are shown in Table 1.
(§3) When using cells other than HepG2 cells, the following culture media were used instead of the MEM culture medium, and the following single cell suspensions were prepared with the following media:
RPMI1640 culture medium containing 10% fetal bovine serum, 1×10^4 cell suspension

WiDr colon cancer cells = test: In vivo anti-tumor experiment, WiDr human tumor xenograft (reference); design: species or system BALB/c nude mice; conditions: 6 days a week for two weeks, day 14
Experimental: (§4) Human tumor xenografts were generated with PC-3 prostate cancer cells, and WiDr colon cancer cells, and were grown as subcutaneous tumors in mutant BALB/c nude mice. Each nude mouse was subcutaneously inoculated with a tumor fragment of 2 mm by 2 mm by 2 mm. When tumors reached a volume of 100-300 mm^3, animals were divided randomly into test groups of five mice (day 0). The samples were orally administered at a dosage of 100, 200 or 400 mg/kg once daily, 6 days a week for two weeks. The length (L) and width (W) of the subcutaneous tumor mass were measured by calipers in live mice, and the tumor volume (TV) was calculated as: TV=(L×W^2)/2. The tumor volume at day n was expressed as relative tumor volume (RTV), according to the formula RTV=TVn/TV0, where TVn is the tumor volume at day n, and TV0 is the tumor volume at day 0. T/C% on day 14 was determined by calculating RTV as: T/C%=100×(mean RTV of treated group)/(mean RTV of control group). The specimens in which T/C (%) was 50% or less and having a significant difference at P value 1% on one side in a Mann-Whitney U test were evaluated as effective (+).

[1] = system: PC-3 prostate cancer cells; test: In vitro anti-tumor experiment, growth inhibition of PC-3 cells; assay type: cell-based; conditions: PC-3, 72 hours incubation
Experimental: as §1, §2, §3
PC-3 prostate cancer cells:
F12K culture medium containing 10% fetal bovine serum, 2×10^4 cell suspension

Hepatoma HepG2 cells = test: In vitro anti-tumor experiment, growth inhibition of HepG2 cells; assay type: cell-based; conditions: HepG2, 72 hours incubation
Experimental: as §1, §2

[2] = system: PC-3 prostate cancer cells; test: In vivo anti-tumor experiment, PC-3 human tumor xenograft; design: species or system BALB/c nude mice; conditions: 6 days a week for two weeks, day 14
Experimental: as §4

GI50 (B16F10 melanoma cells; Mus musculus, B16-F10) [nM] | GI50 ([1]; Homo sapiens) [nM] | GI50 (Hepatoma HepG2 cells; Homo sapiens) [nM] | melting point | SMILES | T/C (%) Colon Cancer (reference) (WiDr colon cancer cells; 200 mg/kg orally once daily) [%] | T/C (%) Prostate Cancer ([2]; 200 mg/kg orally once daily) [%] | Evaluation effective (+), Prostate Cancer ([2]; 200 mg/kg orally once daily) | further results
310 | 240 | 1150 |  | FC(F)c1nc2ccccc2n1-c1nc(N2CCOCC2)nc(N2CCOCC2)n1 [Compound 1, 2-(2-difluoromethylbenzimidazol-1-yl)-4,6-dimorpholino-1,3,5-triazine] |  |  |  | Evaluation effective (+), Colon Cancer (reference) (WiDr colon cancer cells; 400 mg/kg orally once daily): + (T/C (%) was 50% or less and having a significant difference at P value 1% on one side in a Mann-Whitney U test were evaluated as effective (+)); T/C (%) Colon Cancer (reference) (WiDr colon cancer cells; 400 mg/kg orally once daily): 33.2%; Evaluation effective (+), Prostate Cancer ([2]; 400 mg/kg orally once daily): + (T/C (%) was 50% or less and having a significant difference at P value 1% on one side in a Mann-Whitney U test were evaluated as effective (+)); T/C (%) Prostate Cancer ([2]; 400 mg/kg orally once daily): 24.8%
 |  |  | 214 to 215 °C | C[C@@H]1CN(c2nc(N3CCOCC3)nc(-n3c(C(F)F)nc4c(O)cccc43)n2)C[C@H](C)O1 [Compound 11, 2-(2-difluoromethyl-4-hydroxybenzimidazol-1-yl)-4-(cis-2,6-dimethylmorpholino)-6-morpholino-1,3,5-triazine] | 85.4 | 66.5 |  | T/C (%) Colon Cancer (reference) (WiDr colon cancer cells; 400 mg/kg orally once daily): 83.5%; Evaluation effective (+), Prostate Cancer ([2]; 400 mg/kg orally once daily): + (T/C (%) was 50% or less and having a significant difference at P value 1% on one side in a Mann-Whitney U test were evaluated as effective (+)); T/C (%) Prostate Cancer ([2]; 400 mg/kg orally once daily): 44.3%
 |  |  |  | COC(=O)Oc1cccc2c1nc(C(F)F)n2-c1nc(N2CCOCC2)cc(N2CCOC(C)(C)C2)n1 [Compound 14, 2-(2-difluoromethyl-4-methoxycarbonyloxybenzimidazol-1-yl)-4-(2,2-dimethyl-moropholino)-6-morpholinopyrimidine] |  | 47.3 | + (T/C (%) was 50% or less and having a significant difference at P value 1% on one side in a Mann-Whitney U test were evaluated as effective (+)) | 
 |  |  |  | CCOC(=O)Oc1cccc2c1nc(C(F)F)n2-c1nc(N2CCOCC2)cc(N2C[C@@H](C)O[C@@H](C)C2)n1 [Compound 15, 2-(4-ethoxycarbonyloxy-2-difluoromethylbenzimidazol-1-yl)-4-(cis-2,6-dimethyl-moropholino)-6-morpholinopyrimidine] |  | 47.5 | + (T/C (%) was 50% or less and having a significant difference at P value 1% on one side in a Mann-Whitney U test were evaluated as effective (+)) | 
 |  |  |  | COc1cccc2c1nc(C(F)F)n2-c1nc(N2CCOCC2)cc(N2C[C@@H](C)O[C@@H](C)C2)n1 [Compound 6, 2-(2-difluoromethyl-4-methoxybenzimidazol-1-yl)-4-(cis-2,6-dimethylmorpholino)-6-moropholinopyrimidine] | 29.5 | 16.2 | + (T/C (%) was 50% or less and having a significant difference at P value 1% on one side in a Mann-Whitney U test were evaluated as effective (+)) | GI50 (B16F10 melanoma cells): 1210 nM; Evaluation effective (+), Colon Cancer (reference) (WiDr colon cancer cells; 100 mg/kg orally once daily): + (T/C (%) was 50% or less and having a significant difference at P value 1% on one side in a Mann-Whitney U test were evaluated as effective (+)); T/C (%) Colon Cancer (reference) (WiDr colon cancer cells; 100 mg/kg orally once daily): 24.8%; Evaluation effective (+), Colon Cancer (reference) (WiDr colon cancer cells; 200 mg/kg orally once daily): + (T/C (%) was 50% or less and having a significant difference at P value 1% on one side in a Mann-Whitney U test were evaluated as effective (+)); GI50 [1]: 540 nM; GI50 (Hepatoma HepG2 cells): 890 nM; Evaluation effective (+), Prostate Cancer ([2]; 100 mg/kg orally once daily): + (T/C (%) was 50% or less and having a significant difference at P value 1% on one side in a Mann-Whitney U test were evaluated as effective (+)); T/C (%) Prostate Cancer ([2]; 100 mg/kg orally once daily): 32.3%
250 | 190 | 340 |  | COc1cccc2c1nc(C(F)F)n2-c1nc(N2CCOCC2)nc(N2CCOCC2)n1 [Compound 4, 2-(2-difluoromethyl-4-methoxybenzimidazol-1-yl)-4,6-dimorpholino-1,3,5-triazine] |  |  |  | 
 |  |  | 160 to 162 °C | COc1cccc2c1nc(C(F)F)n2-c1nc(N2CCOCC2)cc(N2CCOC(C)(C)C2)n1 [Compound 5, 2-(2-difluoromethyl-4-methoxybenzimidazol-1-yl)-4-(2,2-dimethylmorpholino)-6-morpholinopyrimidine] |  | 39.1 | + (T/C (%) was 50% or less and having a significant difference at P value 1% on one side in a Mann-Whitney U test were evaluated as effective (+)) | Evaluation effective (+), Colon Cancer (reference) (WiDr colon cancer cells; 100 mg/kg orally once daily): + (T/C (%) was 50% or less and having a significant difference at P value 1% on one side in a Mann-Whitney U test were evaluated as effective (+))
950 | 740 | 1500 | 176 to 178 °C | CC1(C)CN(c2nc(N3CCOCC3)nc(-n3c(C(F)F)nc4ccccc43)n2)CCO1 [Compound 2, 2-(2-difluoromethylbenzimidazol-1-yl)-4-(2,2-dimethylmorpholino)-6-morpholino-1,3,5-triazine] |  |  |  | 
63 | 20 | 150 |  | OCC1CCCN1c1nc(N2CCOCC2)nc(-n2c(C(F)F)nc3c(O)cccc32)n1 (stereo not shown) [Compound 9, 2-(2-difluoromethyl-4-hydroxybenzimidazol-1-yl)-4-(2-hydroxymethylpyrrolidin-1-yl)-6-morpholino-1,3,5-triazine] | 49.6 | 31.8 | + (T/C (%) was 50% or less and having a significant difference at P value 1% on one side in a Mann-Whitney U test were evaluated as effective (+)) | Evaluation effective (+), Colon Cancer (reference) (WiDr colon cancer cells; 200 mg/kg orally once daily): + (T/C (%) was 50% or less and having a significant difference at P value 1% on one side in a Mann-Whitney U test were evaluated as effective (+))
 |  |  |  | CC1(C)COCCN1c1cc(N2CCOCC2)nc(-n2c(C(F)F)nc3c(O)cccc32)n1 [Compound 10, 2-(2-difluoromethyl-4-hydroxybenzimidazol-1-yl)-4-(3,3-dimethylmoropholino)-6-morpholinopyrimidine] | 46.2 | 38.1 | + (T/C (%) was 50% or less and having a significant difference at P value 1% on one side in a Mann-Whitney U test were evaluated as effective (+)) | GI50 (B16F10 melanoma cells): 42 nM; Evaluation effective (+), Colon Cancer (reference) (WiDr colon cancer cells; 200 mg/kg orally once daily): + (T/C (%) was 50% or less and having a significant difference at P value 1% on one side in a Mann-Whitney U test were evaluated as effective (+)); T/C (%) Colon Cancer (reference) (WiDr colon cancer cells; 400 mg/kg orally once daily): 63.1%; GI50 [1]: 20 nM; GI50 (Hepatoma HepG2 cells): 90 nM; Evaluation effective (+), Prostate Cancer ([2]; 400 mg/kg orally once daily): + (T/C (%) was 50% or less and having a significant difference at P value 1% on one side in a Mann-Whitney U test were evaluated as effective (+)); T/C (%) Prostate Cancer ([2]; 400 mg/kg orally once daily): 20.8%
270 | 100 | 260 | 238 °C (dec.) | CC1(C)CN(c2nc(N3CCOCC3)nc(-n3c(C(F)F)nc4c(Cl)cc(N)cc43)n2)CCO1 [Compound 12, 2-(6-amino-4-chloro-2-difluoromethylbenzimidazol-1-yl)-4-(2,2-dimethylmorpholino)-6-morpholino-1,3,5-triazine] |  |  |  | 
18 | 10 | 120 |  | Oc1cccc2c1nc(C(F)F)n2-c1nc(N2CCOCC2)nc(N2CCOCC2)n1 [Compound 8, 2-(2-difluoromethyl-4-hydroxybenzimidazol-1-yl)-4,6-dimorpholino-1,3,5-triazine] |  |  |  | 
 |  |  |  | CC(=O)Oc1cccc2c1nc(C(F)F)n2-c1nc(N2CCOCC2)cc(N2C[C@@H](C)O[C@@H](C)C2)n1 [Compound 13, 2-(2-difluoromethyl-4-acetoxybenzimidazol-1-yl)-4-(cis-2,6-dimethylmoropholino)-6-morpholinopyrimidine] |  | 65.4 |  | 
